Measured values from US20090069565A1, “NEW INDOLE DERIVATIVES AS FACTOR XA INHIBITORS” (priority 2001, published 2009).
Read-outs that look alike come from different tables or passages of the source.

Target: human factor Xa (Homo sapiens, UniProt P00742)
Test: Factor Xa assay (chromogenic, substrate S-2765);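 also: purified enzyme preincubated with inhibitor for 10 min before substrate addition, final reaction volume 100 µl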
Format: biochemical
[1] = inhibition constant for factor Xa, purified enzyme 0.5 nM, substrate S-2765 140 μM, 25° C., pH 7.8, Ki=IC50/{1+(substrate concentration/Km)}, read-out: Ki(FXa)

Chain of human factor Xa (P00742 235-488 limits assumed): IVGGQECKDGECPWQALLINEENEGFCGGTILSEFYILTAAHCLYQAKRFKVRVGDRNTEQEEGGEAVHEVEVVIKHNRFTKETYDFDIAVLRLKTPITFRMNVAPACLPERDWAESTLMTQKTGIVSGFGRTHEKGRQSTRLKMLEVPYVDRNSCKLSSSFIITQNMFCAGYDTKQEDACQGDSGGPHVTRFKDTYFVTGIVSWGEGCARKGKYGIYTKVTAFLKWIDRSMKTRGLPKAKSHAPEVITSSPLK
Chain of human factor Xa (P00742 41-179 partner limits assumed): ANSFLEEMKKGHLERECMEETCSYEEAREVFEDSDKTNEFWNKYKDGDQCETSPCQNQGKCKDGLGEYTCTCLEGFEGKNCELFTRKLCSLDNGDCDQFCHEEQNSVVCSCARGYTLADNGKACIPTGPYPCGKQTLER

SMILES | Ki (read-out: Ki(FXa)) | further results
COc1cccc2c1cc(C(=O)NC1CCN(C(C)C)CC1)n2CCc1ccc(Cl)cc1 [Example 172, 1-[2-(4-Chloro-phenyl)-ethyl]-4-methoxy-1H-indole-2-carboxylic acid (1-isopropyl-piperidin-4-yl)-amide] | 41 nM | 
CC(C)N1CCC(NC(=O)c2cc3c(Br)cccc3n2Cc2cc(-c3ccc(Cl)s3)on2)CC1 [Example 173, 4-Bromo-1-[5-(5-chloro-thiophen-2-yl)-isoxazol-3-ylmethyl]-1H-indole-2-carboxylic acid (1-isopropyl-piperidin-4-yl)-amide] | 15 nM | 
Cc1cccc2c1cc(C(=O)NC1CCN(C(C)C)CC1)n2Cc1cc(-c2ccc(Cl)s2)on1 [Example 174, 1-[5-(5-Chloro-thiophen-2-yl)-isoxazol-3-ylmethyl]-4-methyl-1H-indole-2-carboxylic acid (1-isopropyl-piperidin-4-yl)-amide] |  | Ki [1]: 3 nM
CC(C)N1CCC(NC(=O)c2cc3cc(C#N)ccc3n2Cc2cc(-c3ccc(Cl)s3)on2)CC1 [Example 176, 1-[5-(5-Chloro-thiophen-2-yl)-isoxazol-3-ylmethyl]-5-cyano-1H-indole-2-carboxylic acid (1-isopropyl-piperidin-4-yl)-amide] |  | Ki [1]: 2 nM
CC(C)N1CCC(NC(=O)c2cc3c(C(F)(F)F)cccc3n2Cc2cc(-c3ccc(Cl)s3)on2)CC1 [Example 177, 1-[5-(5-Chloro-thiophen-2-yl)-isoxazol-3-ylmethyl]-4-trifluoromethyl-1H-indole-2-carboxylic acid (1-isopropyl-piperidin-4-yl)-amide] | 15 nM | 
Cc1ccc(C)c2c1cc(C(=O)NC1CCN(C(C)C)CC1)n2Cc1cc(-c2ccc(Cl)s2)on1 [Example 178, 1-[5-(5-Chloro-thiophen-2-yl)-isoxazol-3-ylmethyl]-4,7-dimethyl-1H-indole-2-carboxylic acid (1-isopropyl-piperidin-4-yl)-amide] |  | Ki: 1.3 nM
COc1ccc(OC)c2c1cc(C(=O)NC1CCN(C(C)C)CC1)n2Cc1cc(-c2ccc(Cl)s2)on1 [Example 179, 1-[5-(5-Chloro-thiophen-2-yl)-isoxazol-3-ylmethyl]-4,7-dimethoxy-1H-indole-2-carboxylic acid (1-isopropyl-piperidin-4-yl)-amide] | 5.5 nM | 
CC(C)N1CCC(NC(=O)c2cc3c(Cl)ccc(Cl)c3n2Cc2cc(-c3ccc(Cl)s3)on2)CC1 [Example 180, 4,7-Dichloro-1-[5-(5-chloro-thiophen-2-yl)-isoxazol-3-ylmethyl]-1H-indole-2-carboxylic acid (1-isopropyl-piperidin-4-yl)-amide] | 24 nM | 
CC(C)N1CCC(NC(=O)c2cc3cc(Cl)cc(Cl)c3n2Cc2cc(-c3ccc(Cl)s3)on2)CC1 [Example 181, 5,7-Dichloro-1-[5-(5-chloro-thiophen-2-yl)-isoxazol-3-ylmethyl]-1H-indole-2-carboxylic acid (1-isopropyl-piperidin-4-yl)-amide] | 14 nM | 
CC(C)N1CCC(NC(=O)c2cc3c(Cl)cccc3n2Cc2cc(-c3ccc(Cl)s3)on2)CC1 [Example 182, 4-Chloro-1-[5-(5-chloro-thiophen-2-yl)-isoxazol-3-ylmethyl]-1H-indole-2-carboxylic acid (1-isopropyl-piperidin-4-yl)-amide] |  | Ki: 5 nM
CN1CCN(NC(=O)c2cc3ccccc3n2Cc2cc(-c3ccc(Cl)s3)on2)CC1 [Example 183, 1-[5-(5-Chloro-thiophen-2-yl)-isoxazol-3-ylmethyl]-1H-indole-2-carboxylic acid (4-methyl-piperazin-1-yl)-amide] | 76 nM | 
CCOC(=O)CN(C(=O)c1cc2cccc(C)c2n1Cc1cc(-c2ccc(Cl)s2)on1)C1CCN(C(C)C)CC1 [Example 184, [{1-[5-(5-Chloro-thiophen-2-yl)-isoxazol-3-ylmethyl]-7-methyl-1H-Indole-2-carbonyl}-(1-isopropyl-piperidin-4-yl)-amino]-acetic acid ethyl ester] | 13 nM | 
Cc1cccc2cc(C(=O)N(CC(=O)O)C3CCN(C(C)C)CC3)n(Cc3cc(-c4ccc(Cl)s4)on3)c12 [Example 185, [{1-[5-(5-Chloro-thiophen-2-yl)-isoxazol-3-ylmethyl]-7-methyl-1H-indole-2-carbonyl}-(1-isopropyl-piperidin-4-yl)-amino]-acetic acid] | 5 nM | 
CCC(CC)N1CCC(NC(=O)c2cc3ccccc3n2Cc2cc(-c3ccc(Cl)s3)on2)CC1 [Example 186, 1-[5-(5-Chloro-thiophen-2-yl)-isoxazol-3-ylmethyl]-1H-indole-2-carboxylic acid [1-(1-ethyl-propyl)-piperidin-4-yl]-amide] |  | Ki [1]: 220 nM
CN1CCC(NC(=O)c2cc3ccccc3n2Cc2cc(-c3ccc(Cl)s3)on2)CC1 [Example 187, 1-[5-(5-Chloro-thiophen-2-yl)-isoxazol-3-ylmethyl]-1H-indole-2-carboxylic acid (1-methyl-piperidin-4-yl)-amide] |  | Ki [1]: 40 nM
O=C(NC1CCN(CC(F)(F)F)CC1)c1cc2ccccc2n1Cc1cc(-c2ccc(Cl)s2)on1 [Example 188, 1-[5-(5-Chloro-thiophen-2-yl)-isoxazol-3-ylmethyl]-1H-indole-2-carboxylic acid [1-(2,2,2-trifluoro-ethyl)-piperidin-4-yl]-amide] | 1030 nM | 

SMILES | Ki (read-out: Ki(FXa)) | further results
O=CN1CCC(NC(=O)c2cc3ccccc3n2Cc2cc(-c3ccc(Cl)s3)on2)CC1 [Example 189, 1-[5-(5-Chloro-thiophen-2-yl)-isoxazol-3-ylmethyl]-1H-indole-2-carboxylic acid (1-formyl-piperidin-4-yl)-amide] | 2020 nM | 
NC(=O)N1CCC(NC(=O)c2cc3ccccc3n2Cc2cc(-c3ccc(Cl)s3)on2)CC1 [Example 190, 1-[5-(5-Chloro-thiophen-2-yl)-isoxazol-3-ylmethyl]-1H-indole-2-carboxylic acid (1-carbamoyl-piperidin-4-yl)-amide] |  | Ki [1]: 1080 nM
CS(=O)(=O)N1CCC(NC(=O)c2cc3ccccc3n2Cc2cc(-c3ccc(Cl)s3)on2)CC1 [Example 191, 1-[5-(5-Chloro-thiophen-2-yl)-isoxazol-3-ylmethyl]-1H-indole-2-carboxylic acid (1-methanesulfonyl-piperidin-4-yl)-amide] | 136 nM | 
CC(=O)N1CCC(NC(=O)c2cc3ccccc3n2Cc2cc(-c3ccc(Cl)s3)on2)CC1 [Example 192, 1-[5-(5-Chloro-thiophen-2-yl)-isoxazol-3-ylmethyl]-1H-indole-2-carboxylic acid (1-acetyl-piperidin-4-yl)-amide] |  | Ki [1]: 763 nM
O=C(NC1CCN(c2ccnc(Cl)n2)CC1)c1cc2ccccc2n1Cc1cc(-c2ccc(Cl)s2)on1 [Example 193, 1-[5-(5-Chloro-thiophen-2-yl)-isoxazol-3-ylmethyl]-1H-indole-2-carboxylic acid [1-(2-chloro-pyrimidin-4-yl)-piperidin-4-yl]-amide] | 199 nM | 
O=C(NC1CCN(c2ccncn2)CC1)c1cc2ccccc2n1Cc1cc(-c2ccc(Cl)s2)on1 [Example 194, 1-[5-(5-Chloro-thiophen-2-yl)-isoxazol-3-ylmethyl]-1H-indole-2-carboxylic acid (1-pyrimidin-4-yl-piperidin-4-yl)-amide] |  | Ki [1]: 95 nM
CC(C)CN1CCC(NC(=O)c2cc3ccccc3n2Cc2cc(-c3ccc(Cl)s3)on2)CC1 [Example 199, 1-[5-(5-Chloro-thiophen-2-yl)-isoxazol-3-ylmethyl]-1H-indole-2-carboxylic acid (1-isobutyl-piperidin-4-yl)-amide] |  | Ki [1]: 142 nM
CCCN1CCC(NC(=O)c2cc3ccccc3n2Cc2cc(-c3ccc(Cl)s3)on2)CC1 [Example 200] |  | Ki [1]: 64 nM
COC(=O)N1CCC(NC(=O)c2cc3ccccc3n2Cc2cc(-c3ccc(Cl)s3)on2)CC1 [Example 201, 4-({1-[5-(5-Chloro-thiophen-2-yl)-isoxazol-3-ylmethyl]-1H-indole-2-carbonyl}-amino)-piperidine-1-carboxylic acid methyl ester] | 1780 nM | 
CC(C)N1CCN(NC(=O)c2cc3ccccc3n2Cc2cc(-c3ccc(Cl)s3)on2)CC1 [Example 202, 1-[5-(5-Chloro-thiophen-2-yl)-isoxazol-3-ylmethyl]-1H-indole-2-carboxylic acid (4-isopropyl-piperazin-1-yl)-amide] | 20 nM | 
CCN1CCN(NC(=O)c2cc3ccccc3n2Cc2cc(-c3ccc(Cl)s3)on2)CC1 [Example 203, 1-[5-(5-Chloro-thiophen-2-yl)-isoxazol-3-ylmethyl]-1H-indole-2-carboxylic acid (4-ethyl-piperazin-1-yl)-amide] | 28 nM | 
O=C(c1cc2ccccc2n1Cc1cc(-c2ccc(Cl)s2)on1)N(c1ccncc1)C1CCN(c2ccncc2)CC1 [Example 204, 1-[5-(5-Chloro-thiophen-2-yl)-isoxazol-3-ylmethyl]-1H-indole-2-carboxylic acid pyridin-4-yl-(3,4,5,6-tetrahydro-2H-[1,4′]bipyridinyl-4-yl)-amide] |  | Ki: 74 nM
O=C(c1cc2cc([N+](=O)[O-])ccc2n1Cc1cc(-c2ccc(Cl)s2)on1)N(c1ccncc1)C1CCN(c2ccncc2)CC1 [Example 205, 1-[5-(5-Chloro-thiophen-2-yl)-isoxazol-3-ylmethyl]-5-nitro-1H-indole-2-carboxylic acid pyridin-4-yl-(3,4,5,6-tetrahydro-2H-[1,4′]bipyridinyl-4-yl)-amide] |  | Ki: 34 nM
N#Cc1c(C(=O)NC2CCN(c3ccncc3)CC2)n(Cc2cc(-c3ccc(Cl)s3)on2)c2ccccc12 [Example 206, 1-[5-(5-Chloro-thiophen-2-yl)-isoxazol-3-ylmethyl]-3-cyano-1H-indole-2-carboxylic acid (3,4,5,6-tetrahydro-2H-[1,4′]bipyridinyl-4-yl)-amide] | 12 nM | 
COc1ccc(C#N)c2c1c(C#N)c(C(=O)NC1CCN(C(C)C)CC1)n2Cc1cc(-c2ccc(Cl)s2)on1 [Example 208, 1-[5-(5-Chloro-thiophen-2-yl)-isoxazol-3-ylmethyl]-3,7-dicyano-4-methoxy-1H-indole-2-carboxylic acid (1-isopropyl-piperidin-4-yl)-amide] | 1 nM | 
CC(C)N1CCC(NC(=O)c2cc3ccccc3n2Cc2cc3ccc(Cl)cc3c(Cl)n2)CC1 [Example 210, 1-(1,7-Dichloro-isoquinolin-3-ylmethyl)-1H-indole-2-carboxylic acid (1-isopropyl-piperidin-4-yl)-amide] | 79 nM | 
